From patent US8753875B2, “Compositions and means for diagnosing microbial infections” (priority 2007, dated 2014)
Like-named read-outs stand apart in the source and are kept apart here.

What was measured:
S. agalactiae = system: S. agalactiae; design: key: Susceptible = S; Resistant = R; conditions: cited from earlier work
S. saprophyticus [1] = system: S. saprophyticus; design: key: Susceptible = S; Resistant = R; conditions: cited from earlier work
E. coli [2] = conditions: cited from earlier work
Candida sp. = system: Candida sp.; design: key: Susceptible = S; Resistant = R; conditions: cited from earlier work
Pseud. Aeruginosa = system: Pseud. Aeruginosa; design: key: Susceptible = S; Resistant = R; conditions: cited from earlier work
E. coli [3] = test: Growth of E. coli in antibiotic compartments of the platform (FIG. 3); assay type: cell-based; conditions: illustrated E. coli of FIG. 3
From the text: The photos show growth of E. coli at different quantities of bacteria/ml urine.

E. faecium [4] = system: E. faecium; design: key: Susceptible = S; Resistant = R; conditions: cited from earlier work
E. coli [5] = system: E. coli; design: key: Susceptible = S; Resistant = R; conditions: cited from earlier work
Citrobacter = system: Citrobacter; design: key: Susceptible = S; Resistant = R; conditions: cited from earlier work
Enterobacter = system: Enterobacter; design: key: Susceptible = S; Resistant = R; conditions: cited from earlier work
P. mirabilis = system: P. mirabilis; design: key: Susceptible = S; Resistant = R; conditions: cited from earlier work
E. faecalis [6] = system: E. faecalis; design: key: Susceptible = S; Resistant = R; conditions: cited from earlier work
Morganella = system: Morganella; design: key: Susceptible = S; Resistant = R; conditions: cited from earlier work
Klebsiella = system: Klebsiella; design: key: Susceptible = S; Resistant = R; conditions: cited from earlier work
P. vulgaris [7] = system: P. vulgaris; design: key: Susceptible = S; Resistant = R; conditions: cited from earlier work
S. saprophyticus [8] = test: Growth on Flexicult plate, susceptibility/resistance to the five antibiotics (FIG. 4, Table A); assay type: cell-based
From the text: (§1) The kit was developed for urine culture in the primary health care setting. It is designed preferably as a nine cm Petri dish divided into six compartments: One larger compartment for quantitative analysis and five smaller compartments for susceptibility testing. The agar in each small compartment contains one of five antimicrobials (for Denmark and Scandinavia preferably: trimethoprim, sulfamethizole, ampicillin, nitrofurantoin and mecillinam (amdinocillin)) at a concentration adjusted to the breakpoint, such that growth in these compartments indicates resistance, and no growth indicates susceptibility. The Petri dish preferably has higher sides, approximately 2.48 cm, than the usual dish, i.e. ca. 1.48 cm. This allows a larger amount, maximum 100 ml, of urine to be poured onto the dish for inoculation.
(§2) Reading the susceptibility of the bacterial growth: Each bacterium (if more than one) is read individually: The growth in each of the antibiotic fields is compared with the growth on the control agar. […] If there is no growth (or substantially less than the control agar), then the bacterium is considered to be susceptible to the antibiotic. […] When nitrofurantoin and mecillinam are used as antibiotics, a few single colonies may be seen of the same type as the bacterium on the control agar: These are not considered to be resistant mutants but “persisters,” i.e. if retested they will appear susceptible. This is commonly seen also by disc diffusion especially for mecillinam.

P. aureginosa = test: as above; assay type: cell-based
From the text: as §1, §2

Klebsiella spp. = test: as above; assay type: cell-based
From the text: as §1, §2

E. coli [9] = test: as above; assay type: cell-based
From the text: as §1, §2

Morganella spp. = test: as above; assay type: cell-based
From the text: as §1, §2

Citrobacter spp. = test: as above; assay type: cell-based
From the text: as §1, §2

E. faecium [10] = test: as above; assay type: cell-based
From the text: as §1, §2

Candida spp. = test: as above; assay type: cell-based
From the text: as §1, §2

Enterobacter spp = test: as above; assay type: cell-based
From the text: as §1, §2

Proteus mirabilis = test: as above; assay type: cell-based
From the text: as §1, §2

P. vulgaris [11] = test: as above; assay type: cell-based
From the text: as §1, §2

E. faecalis [12] = test: as above; assay type: cell-based
From the text: as §1, §2

For `COc1cc(Cc2cnc(N)nc2N)cc(OC)c1OC` [Trimethoprim, S-(3,4,5-trimethoxybenzyl)pyrimidine-2,4-diamine], the Normal susceptibility/resistance (S. agalactiae) is listed as “S”, the Normal susceptibility/resistance (S. saprophyticus [1]) is listed as “S” and the “Antimicrobial resistance of E. coli (resistance in percent)” value (E. coli [2]; Austria, n 126) is listed as 9.5%. For the same compound, the “Antimicrobial resistance of E. coli (resistance in percent)” value (E. coli [2]; Belgium, n 137) was 13.9%, the “Antimicrobial resistance of E. coli (resistance in percent)” value (E. coli [2]; Canada, n 166) was 10.8% and the “Antimicrobial resistance of E. coli (resistance in percent)” value (E. coli [2]; Denmark, n 85) was 10.6%. The “Antimicrobial resistance of E. coli (resistance in percent)” value (E. coli [2]; Finland, n 182) was 5.5%, the “Antimicrobial resistance of E. coli (resistance in percent)” value (E. coli [2]; France, n 199) was 15.6% and the “Antimicrobial resistance of E. coli (resistance in percent)” value (E. coli [2]; Germany, n 138) was 22.5%. For the same compound, the “Antimicrobial resistance of E. coli (resistance in percent)” value (E. coli [2]; Greece, n 132) was 13.6%, the “Antimicrobial resistance of E. coli (resistance in percent)” value (E. coli [2]; Ireland, n 154) was 22.1% and the “Antimicrobial resistance of E. coli (resistance in percent)” value (E. coli [2]; Luxembourg, n 24) was 16.7%. For the same compound, the “Antimicrobial resistance of E. coli (resistance in percent)” value (E. coli [2]; Norway, n 168) was 13.1%, the “Antimicrobial resistance of E. coli (resistance in percent)” value (E. coli [2]; Portugal, n 86) was 26.7% and the “Antimicrobial resistance of E. coli (resistance in percent)” value (E. coli [2]; Spain, n 191) was 25.1%. For the same compound, the “Antimicrobial resistance of E. coli (resistance in percent)” value (E. coli [2]; Sweden, n 193) was 8.8%, the “Antimicrobial resistance of E. coli (resistance in percent)” value (E. coli [2]; Switzerland, n 122) was 18.9% and the “Antimicrobial resistance of E. coli (resistance in percent)” value (E. coli [2]; The Netherlands, n 195) was 12.3%. For the same compound, the “Antimicrobial resistance of E. coli (resistance in percent)” value (E. coli [2]; Total, n 2478) was 14.8%, the “Antimicrobial resistance of E. coli (resistance in percent)” value (E. coli [2]; United Kingdom, n 180) was 13.3% and the Normal susceptibility/resistance (Candida sp.) was “R”. For the same compound, the Normal susceptibility/resistance (Pseud. Aeruginosa) was “R”, the “resistant or susceptible (growth in antibiotic compartment)” value (E. coli [3]) was “susceptible” and the Normal susceptibility/resistance (E. faecium [4]) was “S”. For the same compound, the Normal susceptibility/resistance (E. coli [5]) was “S”, the Normal susceptibility/resistance (Citrobacter) was “S” and the Normal susceptibility/resistance (Enterobacter) was “S”. For the same compound, the Normal susceptibility/resistance (P. mirabilis) was “S”, the Normal susceptibility/resistance (E. faecalis [6]) was “S” and the Normal susceptibility/resistance (Morganella) was “S”. For the same compound, the Normal susceptibility/resistance (Klebsiella) was “S”, the Normal susceptibility/resistance (P. vulgaris [7]) was “S” and the “Susceptibility = S or Resistance = R” value (S. saprophyticus [8]) was “S”. For the same compound, the “Susceptibility = S or Resistance = R” value (P. aureginosa) was “R”, the “Susceptibility = S or Resistance = R” value (Klebsiella spp.) was “S” and the “Susceptibility = S or Resistance = R” value (E. coli [9]) was “S”. The “Susceptibility = S or Resistance = R” value (Morganella spp.) was “S”, the “Susceptibility = S or Resistance = R” value (Citrobacter spp.) was “S” and the “Susceptibility = S or Resistance = R” value (E. faecium [10]) was “S”. For the same compound, the “Susceptibility = S or Resistance = R” value (Candida spp.) was “R”, the “Susceptibility = S or Resistance = R” value (Enterobacter spp) was “S” and the “Susceptibility = S or Resistance = R” value (Proteus mirabilis) was “S”. For the same compound, the “Susceptibility = S or Resistance = R” value (P. vulgaris [11]) was “S” and the “Susceptibility = S or Resistance = R” value (E. faecalis [12]) was “S”.
